This is an account of results in BindingDB's records for doi:10.1021/jm0703035 (Research Triangle Institute, 2007).

Where only a bound is given, the exact number is not on record here.

In one assay the target is Transporter (Rattus norvegicus, UniProt Q63380). Kind of assay: Ligand Binding Assay. The method, then: Brains from male Sprague-Dawley rats were removed, dissected, and rapidly frozen. Ligand binding experiments were conducted in assay tubes containing radioligand, rat membrane tissue, and test compounds. Incubations were terminated by filtration with through GF/B filters. Results were analyzed using the Equilibrium Binding Data Analysis software (EBDA, Biosoft).

Assay [1] concerns the target Sodium-dependent noradrenaline transporter (Homo sapiens, UniProt P23975). Kind of assay: Ligand Binding Assay.

Sequence of Transporter (Q63380 whole entry): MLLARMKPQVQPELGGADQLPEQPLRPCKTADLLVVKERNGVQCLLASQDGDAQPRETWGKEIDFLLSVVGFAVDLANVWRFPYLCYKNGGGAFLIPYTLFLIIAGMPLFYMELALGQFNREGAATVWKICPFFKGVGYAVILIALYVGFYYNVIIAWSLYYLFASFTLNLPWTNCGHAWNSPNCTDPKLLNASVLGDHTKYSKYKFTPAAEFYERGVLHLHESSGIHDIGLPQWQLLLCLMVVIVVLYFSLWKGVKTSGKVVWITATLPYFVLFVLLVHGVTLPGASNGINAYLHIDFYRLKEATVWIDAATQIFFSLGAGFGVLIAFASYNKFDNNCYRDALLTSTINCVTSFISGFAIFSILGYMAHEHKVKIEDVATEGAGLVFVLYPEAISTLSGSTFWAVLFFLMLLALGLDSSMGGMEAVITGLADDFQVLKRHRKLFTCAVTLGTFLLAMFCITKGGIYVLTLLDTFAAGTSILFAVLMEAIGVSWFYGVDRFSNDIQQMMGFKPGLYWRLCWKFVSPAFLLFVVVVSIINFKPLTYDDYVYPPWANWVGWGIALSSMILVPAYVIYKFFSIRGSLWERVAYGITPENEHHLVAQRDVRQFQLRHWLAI
Sequence of Sodium-dependent noradrenaline transporter (P23975 whole entry): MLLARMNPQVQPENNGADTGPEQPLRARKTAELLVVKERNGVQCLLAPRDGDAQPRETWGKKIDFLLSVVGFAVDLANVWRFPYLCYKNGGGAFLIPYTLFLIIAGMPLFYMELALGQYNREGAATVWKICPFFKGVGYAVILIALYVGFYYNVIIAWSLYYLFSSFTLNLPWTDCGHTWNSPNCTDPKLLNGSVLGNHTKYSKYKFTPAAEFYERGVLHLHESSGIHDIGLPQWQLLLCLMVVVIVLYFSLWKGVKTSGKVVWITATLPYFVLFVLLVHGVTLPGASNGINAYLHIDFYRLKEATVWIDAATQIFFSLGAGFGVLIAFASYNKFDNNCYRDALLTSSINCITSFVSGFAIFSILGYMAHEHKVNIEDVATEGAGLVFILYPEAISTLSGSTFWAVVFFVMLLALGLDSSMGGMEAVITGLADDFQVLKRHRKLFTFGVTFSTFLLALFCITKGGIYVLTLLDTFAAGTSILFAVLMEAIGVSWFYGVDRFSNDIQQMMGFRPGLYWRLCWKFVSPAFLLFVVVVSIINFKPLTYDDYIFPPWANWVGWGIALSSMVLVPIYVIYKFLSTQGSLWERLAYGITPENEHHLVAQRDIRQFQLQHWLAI

Consider `CN1[C@H]2CC[C@@H]1[C@@H](c1ncc(-c3ccc(Cl)c(Cl)c3)s1)[C@@H](c1ccc(Cl)cc1)C2` [2-[(1R,2S,3S,5S)-3-(4-chlorophenyl)-8-methyl-8-azabicyclo[3.2.1]octan-2-yl]-5-(3,4-dichlorophenyl)-1,3-thiazole], for which the Ki at Transporter is over 2000 nM.
Consider `COc1ccc(-c2cnc([C@H]3[C@@H](c4ccc(Cl)cc4)C[C@@H]4CC[C@H]3N4C)s2)cc1OC` [2-[(1R,2S,3S,5S)-3-(4-chlorophenyl)-8-methyl-8-azabicyclo[3.2.1]octan-2-yl]-5-(3,4-dimethoxyphenyl)-1,3-thiazole], for which, at Transporter, the inhibition constant (Ki) is over 2000 nM.
`CN1[C@H]2CC[C@@H]1[C@@H](c1ncc(-c3cccc([N+](=O)[O-])c3)s1)[C@@H](c1ccc(Cl)cc1)C2` [2-[(1R,2S,3S,5S)-3-(4-chlorophenyl)-8-methyl-8-azabicyclo[3.2.1]octan-2-yl]-5-(3-nitrophenyl)-1,3-thiazole] registered a Ki at Transporter of over 2000 nM.
`CN1[C@H]2CC[C@@H]1[C@@H](c1ncc(-c3ccc(F)cc3)s1)[C@@H](c1ccc(Cl)cc1)C2` [2-[(1R,2S,3S,5S)-3-(4-chlorophenyl)-8-methyl-8-azabicyclo[3.2.1]octan-2-yl]-5-(4-fluorophenyl)-1,3-thiazole]: the inhibition constant (Ki) on Transporter is over 2000 nM.
Same read-out and setting: then `COc1ccc(-c2cnc([C@H]3[C@@H](c4ccc(Cl)cc4)C[C@@H]4CC[C@H]3N4C)s2)cc1` [2-[(1R,2S,3S,5S)-3-(4-chlorophenyl)-8-methyl-8-azabicyclo[3.2.1]octan-2-yl]-5-(4-methoxyphenyl)-1,3-thiazole], with over 2000 nM; and `CN1[C@H]2CC[C@@H]1[C@@H](c1ncc(-c3ccc([N+](=O)[O-])cc3)s1)[C@@H](c1ccc(Cl)cc1)C2` [2-[(1R,2S,3S,5S)-3-(4-chlorophenyl)-8-methyl-8-azabicyclo[3.2.1]octan-2-yl]-5-(4-nitrophenyl)-1,3-thiazole], with over 2000 nM.
In assay [1], `CN1[C@H]2CC[C@@H]1[C@@H](c1ncc(-c3ccccc3)s1)[C@@H](c1ccc(Cl)cc1)C2` [2-[(1R,2S,3S,5S)-3-(4-chlorophenyl)-8-methyl-8-azabicyclo[3.2.1]octan-2-yl]-5-phenyl-1,3-thiazole] gave an EC50 of 750 nM.
Take `Cc1ccc([C@H]2C[C@@H]3CC[C@H]([C@H]2c2ncc(-c4cccc([N+](=O)[O-])c4)s2)N3C)cc1` [2-[(1R,2S,3S,5S)-8-methyl-3-(4-methylphenyl)-8-azabicyclo[3.2.1]octan-2-yl]-5-(3-nitrophenyl)-1,3-thiazole]: the Ki on Transporter is over 4300 nM.
`Cc1ccc([C@H]2C[C@@H]3CC[C@H]([C@H]2c2ncc(-c4ccc([N+](=O)[O-])cc4)s2)N3C)cc1` [2-[(1R,2S,3S,5S)-8-methyl-3-(4-methylphenyl)-8-azabicyclo[3.2.1]octan-2-yl]-5-(4-nitrophenyl)-1,3-thiazole] showed an inhibition constant (Ki) at Transporter of over 2000 nM.
At Transporter, `Cc1ccc([C@H]2C[C@@H]3CC[C@H]([C@H]2c2ncc(-c4ccc(Cl)c(Cl)c4)s2)N3C)cc1` [5-(3,4-dichlorophenyl)-2-[(1R,2S,3S,5S)-8-methyl-3-(4-methylphenyl)-8-azabicyclo[3.2.1]octan-2-yl]-1,3-thiazole] registered an inhibitory constant (Ki) of over 2000 nM. In assay [1], this molecule returned a half-maximal effective concentration (EC50) of 4000 nM.
On Transporter, `COc1ccc(-c2cnc([C@H]3[C@@H](c4ccc(C)cc4)C[C@@H]4CC[C@H]3N4C)s2)cc1OC` [5-(3,4-dimethoxyphenyl)-2-[(1R,2S,3S,5S)-8-methyl-3-(4-methylphenyl)-8-azabicyclo[3.2.1]octan-2-yl]-1,3-thiazole] had a Ki of over 2000 nM.
Take `CN1[C@H]2CC[C@@H]1[C@@H](c1ncc(-c3cccc(Br)c3)s1)[C@@H](c1ccc(Cl)cc1)C2` [5-(3-bromophenyl)-2-[(1R,2S,3S,5S)-3-(4-chlorophenyl)-8-methyl-8-azabicyclo[3.2.1]octan-2-yl]-1,3-thiazole]: the inhibitory constant (Ki) at Transporter was over 2000 nM.
The molecule `Cc1ccc([C@H]2C[C@@H]3CC[C@H]([C@H]2c2ncc(-c4cccc(Br)c4)s2)N3C)cc1` [5-(3-bromophenyl)-2-[(1R,2S,3S,5S)-8-methyl-3-(4-methylphenyl)-8-azabicyclo[3.2.1]octan-2-yl]-1,3-thiazole] had an inhibition constant (Ki) at Transporter of over 2000 nM.
As to `CN1[C@H]2CC[C@@H]1[C@@H](c1ncc(-c3ccc(Br)cc3)s1)[C@@H](c1ccc(Cl)cc1)C2` [5-(4-bromophenyl)-2-[(1R,2S,3S,5S)-3-(4-chlorophenyl)-8-methyl-8-azabicyclo[3.2.1]octan-2-yl]-1,3-thiazole], the Ki at Transporter was over 2000 nM.
Still for that read-out and setting: the result for `CN1[C@H]2CC[C@@H]1[C@@H](c1ncc(-c3ccc(Cl)cc3)s1)[C@@H](c1ccc(Cl)cc1)C2` [5-(4-chlorophenyl)-2-[(1R,2S,3S,5S)-3-(4-chlorophenyl)-8-methyl-8-azabicyclo[3.2.1]octan-2-yl]-1,3-thiazole] reads over 2000 nM; that for `Cc1ccc([C@H]2C[C@@H]3CC[C@H]([C@H]2c2ncc(-c4ccc(Cl)cc4)s2)N3C)cc1` [5-(4-chlorophenyl)-2-[(1R,2S,3S,5S)-8-methyl-3-(4-methylphenyl)-8-azabicyclo[3.2.1]octan-2-yl]-1,3-thiazole], over 2000 nM; that for `Cc1ccc([C@H]2C[C@@H]3CC[C@H]([C@H]2c2ncc(-c4ccc(F)cc4)s2)N3C)cc1` [5-(4-fluorophenyl)-2-[(1R,2S,3S,5S)-8-methyl-3-(4-methylphenyl)-8-azabicyclo[3.2.1]octan-2-yl]-1,3-thiazole], over 2000 nM.
At Transporter, `COc1ccc(-c2cnc([C@H]3[C@@H](c4ccc(C)cc4)C[C@@H]4CC[C@H]3N4C)s2)cc1` [5-(4-methoxyphenyl)-2-[(1R,2S,3S,5S)-8-methyl-3-(4-methylphenyl)-8-azabicyclo[3.2.1]octan-2-yl]-1,3-thiazole] yielded an inhibitory constant (Ki) of over 2000 nM. Moreover, the response in assay [1] was half-maximal at 1810 nM (EC50).
